In patent US20140163082A1, “PYRAZOLYL COMPOUNDS FOR USE IN REVERSING REACTIVE GLIOSIS” (priority 2011, published 2014):

How the values were obtained:
macrophages = macrophages stimulated by lipoteichoic acid in vitro, ref [31]; cited from earlier work
rMC-1 cells = assay: Western blot, rMC-1; assay type: cell-based; conditions: rMC-1, hypoxia 48 hours, YC-1 25-100 μM
Procedure: Cells were placed in airtight chambers [BioSpherix, Redfield, N.Y.] and the O2 tension was maintained at 1.2% by using Pro-Ox Model 110 O2 regulator [BioSpherix, Redfield, N.Y.]. The chamber was purged with a gas mixture of 5.32% CO2, and 93.48% N2. […] Müller cells [rMC-1] and […] cells were seeded overnight in 6-well plates [10^5 cells/well]. Cells were treated with either YC-1 [25-100 μM] or DMSO [0.2% v/v] for 48 hours under normoxic or hypoxic environments. Reactions were terminated by addition of lysis buffer [Cell Signaling, Beverly, Mass.]. Protein content of the cell lysates was determined according to the Bradford method [Bio-Rad, Hercules, Calif.]. Aliquots [40 μg] of whole-cell lysates were separated on 7.5% SDS-PAGE, and electro-transferred onto polyvinylidene membranes [Amersham Pharmacia Biotech, Little Chalfont]. After blocking with 5% nonfat dry milk in TBS-T, the blots were incubated overnight with anti-iNOS [at 1:100] and anti-β-actin [internal control] antibodies. Then blots were washed 3×10 min washes in PBS/tween and subsequently incubated with peroxidase-conjugated anti-mouse IgG secondary antibody at 1:3000. The signals were obtained by enhanced chemiluminescence [Amersham Biosciences], and visualized by exposure to X-ray film. Upon completion of chemiluminescence, equal lane loading was checked by Ponceau S Solution [Sigma, St. Louis, Mo.]. X-ray films were scanned with a computer-assisted densitometer [model G-710; Bio-Rad] to quantify band optical density [Quantity One software; Bio-Rad].

[1] = system: ischemic retinas of the OIR mouse model; conditions: refs [16, 18]; cited from earlier work
[2] = system: retinal NV in OIR mouse model; assay type: in vivo
Procedure: Retinal NV was induced in newborn mice as described previously. Briefly, P7 mice were exposed with their nursing mother, for 5 days [between P7 and P12] to hyperoxic conditions, by incubating them in an airtight chamber [PROOX 110 chamber O2 controller; Biospherix Ltd., Redfield, N.Y.] ventilated by a mixture of O2 and air to a final oxygen fraction of 75±2%. These incubation conditions induced vaso-obliteration and subsequent cessation of vascular development in the capillary beds of the central retina. At P12, the mice were allowed to recover in normal room air conditions and maintained for another 5 days [till P17], the day in which peak disease occurs. A condition of relative hypoxia resulted between P12 and P17, and extensive retinal NV developed in 100% of the mice. Age-matched animals with the hyperoxia-exposed groups were maintained identically, except they were exposed to room air […], 79% N2] for the entire duration of the experiment. All animals were examined and sacrificed on the same days.
A group of hyperoxia-exposed animals [n=15] were injected intravitreally [into both eyes] at P12 and P15 with 3 μl of YC-1 [100 μM] [drug-treated group]. Another group of hyperoxiaexposed mice [n=15] were injected intravitreally [into both eyes] at P12 and P15 with 3 μl of DMSO [0.2% [v/v]] [mock-treated group]. Non-treated mice grown under ambient conditions, non-treated hyperoxia-exposed mice, DMSO-treated hyperoxia-exposed mice and YC-1-treated hyperoxia-exposed mice, were all examined at different critical time points for qualitative assessment of the retinal vasculature by fluorescein angiography.
Deep anesthesia was induced by intraperitoneal injection of ketamine [1%], xylazine [0.1%], and sodium chloride [0.9%] in a concentration of 0.1 mL/10 g mouse body weight. Sternotomy was performed, the mice were perfused through the left ventricle with 600 μL of high-molecular-mass [2×106 Da] FITC-dextran in PBS [50 mg/ml], which was allowed to circulate for 2 minutes before the animals were euthanatized and the eyes enucleated and the flat mounts were prepared. Subsequent to retinal extraction, all retinas were fixed in 4% paraformaldehye for 24 hrs at 4° C. A dissecting microscope was used to dissect the cornea with a circumferential limbal incision, followed by removal of the lens and vitreous. Microscissors were used to make four radial incisions of the retinal eyecup in order to prepare retinal flat mounts on glass slides. Flat mounts were immersed in Aquamount mounting medium [Polysciences, Warrington, Pa.], coverslips were carefully placed over the retina, and the edges of the coverslips were sealed.
Images of the perfused retinas were captured with a fluorescence microscope [Zeiss Axiovert 135, Thornwood, N.Y.], and images were captured in a digital format in a 10× and 100× objectives using a digital camera [AxioCam, NY]. The extent of retinal NV was then quantified by Metamorph™ imaging software [Universal Imaging, Sunnyvale, Calif.]. Briefly, the entire retina was outlined to distinguish the total retinal area of each eye. Then, the images were thresholded to emphasize only the FITC-perfused vessels. This permitted the measurement of total BV area of each retina and the percentage of each retina that is engrossed with BVs. The entire mounted retinas were analyzed in a masked fashion [three observers] to minimize sampling bias. The total vascularized area was then normalized to the total retinal area and the percentage of the retina covered by vessels was calculated. The vascular area was quantified by setting a threshold level of fluorescence, above which only vessels were captured [density slicing]. The total surface area of the retina was outlined using the outermost vessel of the arcade near the ora serrata as the border. The central capillary dropout area was quantified from the digital images in masked fashion. […]

SMILES: OCc1ccc(-c2nn(Cc3ccccc3)c3ccccc23)o1 [YC-1, 3-(5′-hydroxymethyl-2′-furyl)-1-benzylindazole]
- expression of iNOS (macrophages): potent activity at abrogating the expression of iNOS
- HIF-1 protein level (Western blot) (rMC-1 cells; vs DMSO-treated hypoxic cells): inhibited the hypoxia-induced upregulation
- PDGF-B protein level (Western blot) (rMC-1 cells; vs DMSO-treated hypoxic cells): inhibited the hypoxia-induced upregulation
- VEGF protein level (Western blot) (rMC-1 cells; vs DMSO-treated hypoxic cells): inhibited the hypoxia-induced upregulation
- iNOS protein level (Western blot) (rMC-1 cells; vs DMSO-treated hypoxic cells): inhibited the hypoxia-induced upregulation
- GFAP protein level (Western blot) (rMC-1 cells; vs non-treated hypoxic cells): inhibited the hypoxia-induced GFAP protein levels in a dose-dependent manner
- HIF-1 and other proangiogenic factors [VEGF, MMP-9, ET-1, and EPO] [1]: inhibits
- retinal vasodilation (vessel diameters) ([2]; OIR mice, dual injection P12 and P15, P17): inhibited oxygen-injury-induced vasodilation
- area of pre-retinal neovascular tufts ([2]; OIR mice, dual injection, P17, vs DMSO-treated group): significantly decreased
- tortuosity index of retinal vessels ([2]; OIR mice, dual injection, P17, DMSO 1.059, normoxic 1.019): 1.026±0.001
- number of BV tufts/flat mount ([2]; OIR mice, dual intravitreal injection P12 and P15, P17, n=15, DMSO 198): 3.0±1.1
- vascularized regions, share of the total size of the retina ([2]; OIR mice, dual intravitreal injections, P17, DMSO 70%, normoxic ~99%): ~97%
- capillary-free (avascularized) regions, share of the size of the entire retina ([2]; OIR mice, intravitreal 3 μl YC-1 100 μM at P12 and P15, P17, DMSO-treated 30%): 2.2%±0.1
- retinal vaso-obliteration ([2]; OIR mice, vs obliterated areas of DMSO-treated retinas): significantly inhibited the retinal vaso-obliteration
- toxic effects on the retinal vasculature ([2]; mouse, in vivo): No obvious toxic effects
